Tests used:
Male Sprague-Dawley rats = experiment: Spontaneous locomotor activity in rats (sedative properties); type: in vivo, rat; details: for sedative effect (in words): 0.3-10 mg/kg i.p., 45 minutes and 3 hours after administration
Experimental: A study was carried out in rats to determine whether the dihydrotetrabenazine isomers of the invention have sedative properties. The effects of the isomers on spontaneous locomotor activity in rats were compared with the effects produced by tetrabenazine and haloperidol using the methods set out below.
Male Sprague-Dawley rats, (Charles River Laboratories, Saint-Germain/L'Arbresle, France), weighing 200-250 g at the beginning of the study, were used for the studies. The rats were housed, 2 or 3 per cage, in Makrolon type III cages, in a room set up with the following environmental conditions: temperature: 20±2° C., humidity: minimum 45%, air changes: >12 per hour, light/dark cycle of 12 h/12 h [on at 7:00 a.m.]. The rats were allowed to acclimatize to their conditions for at least five days before commencement of the study. The rats received food (Dietex, Vigny, France, ref. 811002) and water (tap water in water bottle) ad libitum.
Solutions of each test compound in corn oil were freshly prepared on the day of the experiment. Haloperidol was prepared in hydroxyethylcellulose, 0.5% in deionized water. Either the vehicle or the test compounds were administered as a single dose (0.3, 1, 3 and 10 mg/kg, 2 mL/kg i.p.). The reference compound haloperidol (1 mg/kg) was administered i.p. (2 mL/kg).
The animals were placed in plexiglass cages under a video camera in a room with low light intensity (maximum 50 lux). At forty five minutes and 3 hours after administration, locomotor activity was determined during 20 minute periods using a video image analyzer (Videotrack, View Point, France). Locomotor activity was recorded in the reference group (haloperidol) at 1 hour after administration. The number and duration of ambulatory movements and duration of inactivity was measured. At the end of the locomotor activity measurement (45 minutes and 3 hours), palpebral closure and arousal were be scored as follows in the plexiglass cage:
The number of occurrences and duration (in seconds) of ambulatory (large) movements and the duration of periods of inactivity (seconds) was determined during two 20 minute periods (45 minutes and 3 hours after administration) using a video image analyzer (Videotrack, ViewPoint, Lyon, France). Image tracking was performed using a video camera placed above the plexiglass cage, recording overall locomotor activity. Images recorded with the video camera were digitalized and displacement of the centre of gravity of the digital image spots was tracked and analyzed using the following method: the speed of displacement of the centre of gravity of the spot was measured and two threshold values were set to define the type of movement: threshold 1 (high speed) and threshold 2 (low speed). When the animal moved and the speed of displacement of the centre of gravity of the spot was above threshold 1, the movement was considered as an ambulatory movement.
The results were expressed as the means±SEMs of the 12 individual values. Statistical analyses were carried out using ANOVA (one way) and Dunnett's t-test and with the non parametric test of Kruskal-Wallis followed by a Mann & Whitney U-test for the sedation cotation. A p value of p<0.05 was taken as indicating significance.

Monoamine Oxidase MAO-B = target: T1, Monoamine Oxidase MAO-B (Homo sapiens, UniProt P27338); experiment: Monoamine Oxidase MAO-B inhibition; type: biochemical; details: for inhibition at 10 µM: read-out: Percentage Inhibition of Enzyme Activity, MAO-B
T1 sequence (P27338 1-520): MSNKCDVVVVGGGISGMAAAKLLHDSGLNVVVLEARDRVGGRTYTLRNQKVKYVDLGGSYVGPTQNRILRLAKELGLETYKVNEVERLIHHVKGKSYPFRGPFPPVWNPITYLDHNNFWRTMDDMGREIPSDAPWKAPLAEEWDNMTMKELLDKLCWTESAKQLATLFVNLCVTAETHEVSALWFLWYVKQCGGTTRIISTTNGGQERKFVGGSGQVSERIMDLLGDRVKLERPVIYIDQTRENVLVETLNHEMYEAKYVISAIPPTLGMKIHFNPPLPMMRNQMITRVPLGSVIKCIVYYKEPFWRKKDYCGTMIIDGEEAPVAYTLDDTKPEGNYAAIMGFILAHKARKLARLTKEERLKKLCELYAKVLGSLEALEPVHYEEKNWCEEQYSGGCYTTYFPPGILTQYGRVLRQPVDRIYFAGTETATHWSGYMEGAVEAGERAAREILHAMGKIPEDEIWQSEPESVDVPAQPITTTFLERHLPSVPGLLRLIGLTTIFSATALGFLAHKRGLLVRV
Experimental: Isomers B and C were tested for their ability to inhibit enzymes involved in the processing of monoamines in the CNS, namely Catechol O-Methyl Transferase (COMT), Monoamine Oxidase A and Monoamine Oxidase B. The assay methods used are described below and the results are set out in Table 7. (a) Catechol O-Methyl Transferase (COMT) Inhibition • Source: […] None • Incubation time: 60 minutes @ 37° C. • Incubation buffer: 100 mM potassium phosphate, 10 mM MgCl2, 3 mM DTT containing 12 units/ml adenosine deaminase, pH 7.4 • Quantitation method: […]

Sigma σ2 Receptor = target: T2, Sigma σ2 Receptor (Rattus norvegicus, UniProt Q5U3Y7); experiment: Sigma σ2 receptor radioligand binding; set-up: species or system Wistar rat; details: 3 nM [3H] Ifenprodil
T2 construct: Source: Wistar rat brain; from tissue; host or cells: Wistar rat brain
T2 sequence (Q5U3Y7 1-176): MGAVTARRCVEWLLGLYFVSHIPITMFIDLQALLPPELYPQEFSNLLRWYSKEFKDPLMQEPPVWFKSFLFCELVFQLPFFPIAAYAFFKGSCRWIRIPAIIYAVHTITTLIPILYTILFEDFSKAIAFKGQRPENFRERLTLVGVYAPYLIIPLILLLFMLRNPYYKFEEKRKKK
Experimental: (a) Adrenergic α2A Receptor: • Reference: S. Uhlen et al. J. Pharmacol. Exp. Ther., 271:1558-1565 (1994) • Source: Human recombinant insect Sf9 cells • Ligand: 1 nM [^3H] […] J. Pharmacol., 99:803-809, (1990) • Source: Wistar rat cerebral cortex • Ligand: 2 nM [3H]

[1] = 0.3 mg/kg i.p., 45 minutes after administration
[2] = 0.3 mg/kg i.p., 3 hours after administration
[3] = 1 mg/kg i.p., 45 minutes after administration
[4] = 1 mg/kg i.p., 3 hours after administration
[5] = 3 mg/kg i.p., 45 minutes after administration
[6] = 3 mg/kg i.p., 3 hours after administration
[7] = 10 mg/kg i.p., 45 minutes after administration
[8] = 10 mg/kg i.p., 3 hours after administration

Row | SMILES | Inactivity Duration (Male Sprague-Dawley rats; [1]) [s] | Large movements Duration (Male Sprague-Dawley rats; [1]) [s] | Large movements Occurrence (Male Sprague-Dawley rats; [1]) | Inactivity Duration (Male Sprague-Dawley rats; [2]) [s] | Large movements Duration (Male Sprague-Dawley rats; [2]) [s] | Large movements Occurrence (Male Sprague-Dawley rats; [2]) | Inactivity Duration (Male Sprague-Dawley rats; [3]) [s] | Large movements Duration (Male Sprague-Dawley rats; [3]) [s] | Large movements Occurrence (Male Sprague-Dawley rats; [3]) | Inactivity Duration (Male Sprague-Dawley rats; [4]) [s] | Large movements Duration (Male Sprague-Dawley rats; [4]) [s] | Large movements Occurrence (Male Sprague-Dawley rats; [4]) | Inactivity Duration (Male Sprague-Dawley rats; [5]) [s] | Large movements Duration (Male Sprague-Dawley rats; [5]) [s] | Large movements Occurrence (Male Sprague-Dawley rats; [5]) | Inactivity Duration (Male Sprague-Dawley rats; [6]) [s] | Large movements Duration (Male Sprague-Dawley rats; [6]) [s] | Large movements Occurrence (Male Sprague-Dawley rats; [6]) | Inactivity Duration (Male Sprague-Dawley rats; [7]) [s] | Large movements Duration (Male Sprague-Dawley rats; [7]) [s] | also measured
1 | COc1cc2c(cc1OC)[C@H]1C[C@H](O)[C@@H](CC(C)C)CN1CC2 (single isomer, unassigned) [Isomer B, 3,11b-cis-dihydrotetrabenazine] | 346.1 ± 36.9 | 72.0 ± 9.6 | 268 ± 36 | 566.4 ± 44.3 | 28.9 ± 9.2 | 101 ± 29 | 334.0 ± 23.2 | 87.0 ± 7.6 | 297 ± 22 | 525.8 ± 28.6 | 34.5 ± 6.2 | 125 ± 18 | 342.2 ± 33.3 | 89.1 ± 12.4 | 313 ± 38 | 530.5 ± 38.0 | 31.1 ± 6.5 | 113 ± 17 | 333.1 ± 26.9 | 84.0 ± 11.2 | Large movements Occurrence (Male Sprague-Dawley rats; [7]): 298 ± 37; Inactivity Duration (Male Sprague-Dawley rats; [8]): 515.0 ± 53.0 s; Large movements Duration (Male Sprague-Dawley rats; [8]): 30.9 ± 6.4 s; Large movements Occurrence (Male Sprague-Dawley rats; [8]): 120 ± 26; sedative effect (in words) (Male Sprague-Dawley rats): no sedative effects were observed; inhibitory activity against monoamine oxidase isoform B (in words) (Monoamine Oxidase MAO-B): no inhibitory activity; inhibition at 10 µM (Monoamine Oxidase MAO-B): -5%; Percentage Inhibition of Specific Binding, σ2 Receptor (Sigma σ2 Receptor; 10 μM): 64%
2 | COc1cc2c(cc1OC)[C@H]1C[C@@H](O)[C@@H](CC(C)C)CN1CC2 (single isomer, unassigned) [Isomer C, 3,11b-cis-dihydrotetrabenazine] | 323.7 ± 25.6 | 79.2 ± 10.0 | 285 ± 34 | 519.3 ± 33.7 | 31.4 ± 6.0 | 113 ± 19 | 324.6 ± 38.1 | 71.8 ± 8.3 | 295 ± 30 | 510.2 ± 44.9 | 30.3 ± 6.5 | 128 ± 24 | 322.7 ± 27.8 | 84.0 ± 9.4 | 308 ± 36 | 493.6 ± 38.5 | 30.2 ± 5.5 | 125 ± 22 | 368.7 ± 30.9 | 66.5 ± 9.9 | Large movements Occurrence (Male Sprague-Dawley rats; [7]): 254 ± 32; Inactivity Duration (Male Sprague-Dawley rats; [8]): 465.7 ± 49.0 s; Large movements Duration (Male Sprague-Dawley rats; [8]): 42.7 ± 8.0 s; Large movements Occurrence (Male Sprague-Dawley rats; [8]): 164 ± 30; sedative effect (in words) (Male Sprague-Dawley rats): no sedative effects were observed; hyperlocomotor effect (in words) (Male Sprague-Dawley rats; 3 hours after administration): slight and non-significant hyperlocomotor effect; inhibitory activity against monoamine oxidase isoform B (in words) (Monoamine Oxidase MAO-B): no inhibitory activity; inhibition at 10 µM (Monoamine Oxidase MAO-B): -5%; inhibition at 10 µM (Sigma σ2 Receptor; read-out: Percentage Inhibition of Specific Binding, σ2 Receptor): 61%

Reference: US20080108645A1, “Dihydrotetrabenazines And Pharmaceutical Compositions Containing Them” (CAMBRIDGE LABORATORIES, (IRELAND), LTD., priority 2004, published 2008)
